In patent US12522602B2, “Derivatives having 2,3-dihydro-1H-indene or 2,3-dihydrobenzofuran moiety or pharmaceutically acceptable salt thereof and pharmaceutical compositions comprising the same” (YUHAN CORPORATION, priority 2019, dated 2026):

Tested on: GM1 production in Jurkat cells
Assay: cells
Format: cell-based
Conditions: Homo sapiens, Jurkat, 72 h

SMILES | IC50 [nM]
Cc1ccc(F)c(-c2ccc3c(c2)CC(C)(C)C3NC(=O)O[C@@H]2CN3CCC2CC3)c1 (stereo partly drawn) [Example 211, (S)-quinuclidin-3-yl (5-(2-fluoro-5-methylphenyl)-2,2-dimethyl-2,3-dihydro-1H-inden-1-yl)carbamate] | 13.2
COc1cc(OC)cc(-c2ccc3c(c2)CC(C)(C)C3NC(=O)O[C@@H]2CN3CCC2CC3)c1 (stereo partly drawn) [Example 169, (S)-quinuclidin-3-yl (5-(3,5-dimethoxyphenyl)-2,2-dimethyl-2,3-dihydro-1H-inden-1-yl)carbamate] | 9.8
O=C(NC1CCc2ccc(-c3ccc(F)c(F)c3)cc21)O[C@@H]1CN2CCC1CC2 (stereo partly drawn) [Example 39, (S)-quinuclidin-3-yl (6-(3,4-difluorophenyl)-2,3-dihydro-1H-inden-1-yl)carbamate] | 51.9
CCOc1c(C)cc(-c2ccc3c(c2)CC(CC)(CC)C3NC(=O)O[C@@H]2CN3CCC2CC3)cc1C (stereo partly drawn) [Example 303, (S)-quinuclidin-3-yl (5-(4-ethoxy-3,5-dimethylphenyl)-2,2-diethyl-2,3-dihydro-1H-inden-1-yl)carbamate] | 27.2
O=C(NC1c2ccc(-c3ccc(Cl)cc3)cc2CC12CC2)O[C@@H]1CN2CCC1CC2 (stereo partly drawn) [Example 390, (S)-quinuclidin-3-yl (5′-(4-chlorophenyl)-1′,3′-dihydrospiro[cyclopropane-1,2′-inden]-1′-yl)carbamate] | 44.1
CCCOc1ccc(-c2ccc3c(c2)CC(C)(C)C3NC(=O)O[C@@H]2CN3CCC2CC3)cc1 (stereo partly drawn) [Example 135, (S)-quinuclidin-3-yl (2,2-dimethyl-5-(4-propoxyphenyl)-2,3-dihydro-1H-inden-1-yl)carbamate] | 8.1
CC(C)Oc1cccc(-c2cc3c(cc2F)C(NC(=O)O[C@@H]2CN4CCC2CC4)C(C)(C)C3)c1 (stereo partly drawn) [Example 378, (S)-quinuclidin-3-yl (6-fluoro-5-(3-isopropoxyphenyl)-2,2-dimethyl-2,3-dihydro-1H-inden-1-yl)carbamate] | 87.5
CCCc1ccc(-c2cc3c(cc2F)C(NC(=O)O[C@@H]2CN4CCC2CC4)C(C)(C)C3)cc1 (stereo partly drawn) [Example 350, (S)-quinuclidin-3-yl (6-fluoro-2,2-dimethyl-5-(4-propylphenyl)-2,3-dihydro-1H-inden-1-yl)carbamate] | 4.5
COc1cc(-c2ccc3c(c2)CC(C)(C)C3NC(=O)O[C@@H]2CN3CCC2CC3)cc(C(F)(F)F)c1 (stereo partly drawn) [Example 224, (S)-quinuclidin-3-yl (5-(3-methoxy-5-(trifluoromethyl)phenyl)-2,2-dimethyl-2,3-dihydro-1H-inden-1-yl)carbamate] | 18.8
COc1ccc(-c2cc3c(cc2F)C(NC(=O)O[C@@H]2CN4CCC2CC4)C(C)(C)C3)cc1 (stereo partly drawn) [Example 355, (S)-quinuclidin-3-yl (6-fluoro-5-(4-methoxyphenyl)-2,2-dimethyl-2,3-dihydro-1H-inden-1-yl)carbamate] | 62.8
CCc1ccc(/C=C/c2ccc3c(c2)CC(C)(C)C3NC(=O)O[C@@H]2CN3CCC2CC3)cc1 (stereo partly drawn) [Example 274, (S)-quinuclidin-3-yl (5-((E)-4-ethylstyryl)-2,2-dimethyl-2,3-dihydro-1H-inden-1-yl)carbamate] | 10.3
COc1cc(-c2ccc3c(c2)CC(C)(C)C3NC(=O)O[C@@H]2CN3CCC2CC3)ccc1C (stereo partly drawn) [Example 254, (S)-quinuclidin-3-yl (5-(3-methoxy-4-methylphenyl)-2,2-dimethyl-2,3-dihydro-1H-inden-1-yl)carbamate] | 45.2
O=C(NC1CCc2cc(-c3cccc(Cl)c3)ccc21)O[C@@H]1CN2CCC1CC2 (stereo partly drawn) [Example 6, (S)-quinuclidin-3-yl (5-(3-chlorophenyl)-2,3-dihydro-1H-inden-1-yl)carbamate] | 39.4
CC(C)c1cccc(-c2ccc3c(c2)CC(C)(C)C3NC(=O)O[C@@H]2CN3CCC2CC3)c1 (stereo partly drawn) [Example 109, (S)-quinuclidin-3-yl (5-(3-isopropylphenyl)-2,2-dimethyl-2,3-dihydro-1H-inden-1-yl)carbamate] | 7.8
COCOc1cccc(-c2ccc3c(c2)CC2(CC2)C3NC(=O)O[C@@H]2CN3CCC2CC3)c1 (stereo partly drawn) [Example 398, (S)-quinuclidin-3-yl (5′-(3-(methoxymethoxy)phenyl)-1′,3′-dihydrospiro[cyclopropane-1,2′-inden]-1′-yl)carbamate] | 36.6
CCC1(CC)Cc2cc(-c3ccc(OC)cc3F)ccc2C1NC(=O)O[C@@H]1CN2CCC1CC2 (stereo partly drawn) [Example 310, (S)-quinuclidin-3-yl (2,2-diethyl-5-(2-fluoro-4-methoxyphenyl)-2,3-dihydro-1H-inden-1-yl)carbamate] | 16.3
CCCOc1ccc(-c2ccc3c(c2)CC(CC)(CC)C3NC(=O)O[C@@H]2CN3CCC2CC3)cc1 (stereo partly drawn) [Example 285, (S)-quinuclidin-3-yl (2,2-diethyl-5-(4-propoxyphenyl)-2,3-dihydro-1H-inden-1-yl)carbamate] | 3.7
CC1(C)Cc2cc(-c3csc4ccccc34)ccc2C1NC(=O)O[C@@H]1CN2CCC1CC2 (stereo partly drawn) [Example 238, (S)-quinuclidin-3-yl (5-(benzo[b]thiophen-3-yl)-2,2-dimethyl-2,3-dihydro-1H-inden-1-yl)carbamate] | 13.2

SMILES | IC50 [nM]
CCOc1ccc(-c2cc3c(cc2F)C(NC(=O)O[C@@H]2CN4CCC2CC4)C(C)(C)C3)cc1F (stereo partly drawn) [Example 387, (S)-quinuclidin-3-yl (5-(4-ethoxy-3-fluorophenyl)-6-fluoro-2,2-dimethyl-2,3-dihydro-1H-inden-1-yl)carbamate] | 48.2
O=C(NC1CCc2ccc(-c3ccc(OC(F)F)cc3)cc21)O[C@@H]1CN2CCC1CC2 (stereo partly drawn) [Example 37, (S)-quinuclidin-3-yl (6-(4-(difluoromethoxy)phenyl)-2,3-dihydro-1H-inden-1-yl)carbamate] | 55.2
CC1(C)Cc2cc(-c3cccc(F)c3)c(F)cc2C1NC(=O)O[C@@H]1CN2CCC1CC2 (stereo partly drawn) [Example 370, (S)-quinuclidin-3-yl (6-fluoro-5-(3-fluorophenyl)-2,2-dimethyl-2,3-dihydro-1H-inden-1-yl)carbamate] | 39.3
CCOc1ccccc1-c1ccc2c(c1)CC(C)(C)C2NC(=O)O[C@@H]1CN2CCC1CC2 (stereo partly drawn) [Example 177, (S)-quinuclidin-3-yl (5-(2-ethoxyphenyl)-2,2-dimethyl-2,3-dihydro-1H-inden-1-yl)carbamate] | 22.9
CCOc1c(C)cc(-c2ccc3c(c2)CC(C)(C)C3NC(=O)O[C@@H]2CN3CCC2CC3)cc1C (stereo partly drawn) [Example 174, (S)-quinuclidin-3-yl (5-(4-ethoxy-3,5-dimethylphenyl)-2,2-dimethyl-2,3-dihydro-1H-inden-1-yl)carbamate] | 40.2
CC1(C)Cc2ccc(-c3ccc(Cl)cc3)cc2C1NC(=O)O[C@@H]1CN2CCC1CC2 (stereo partly drawn) [Example 50, (S)-quinuclidin-3-yl (6-(4-chlorophenyl)-2,2-dimethyl-2,3-dihydro-1H-inden-1-yl)carbamate] | 52.3
COc1ccc(C(C)C)cc1-c1ccc2c(c1)CC(C)(C)C2NC(=O)O[C@@H]1CN2CCC1CC2 (stereo partly drawn) [Example 232, (S)-quinuclidin-3-yl (5-(5-isopropyl-2-methoxyphenyl)-2,2-dimethyl-2,3-dihydro-1H-inden-1-yl)carbamate] | 12.5
Cc1cscc1-c1ccc2c(c1)CC(C)(C)C2NC(=O)O[C@@H]1CN2CCC1CC2 (stereo partly drawn) [Example 138, (S)-quinuclidin-3-yl (2,2-dimethyl-5-(4-methylthiophen-3-yl)-2,3-dihydro-1H-inden-1-yl)carbamate] | 9.1
CC1(C)Cc2cc(-c3cncc4ccccc34)ccc2C1NC(=O)O[C@@H]1CN2CCC1CC2 (stereo partly drawn) [Example 142, (S)-quinuclidin-3-yl (5-(isoquinolin-4-yl)-2,2-dimethyl-2,3-dihydro-1H-inden-1-yl)carbamate] | 20.5
CC1(C)Cc2ccc(-c3cccc(Cl)c3)cc2C1NC(=O)O[C@@H]1CN2CCC1CC2 (stereo partly drawn) [Example 54, (S)-quinuclidin-3-yl (6-(3-chlorophenyl)-2,2-dimethyl-2,3-dihydro-1H-inden-1-yl)carbamate] | 161
O=C(NC1CCc2ccc(-c3ccc(OC(F)(F)F)cc3)cc21)O[C@@H]1CN2CCC1CC2 (stereo partly drawn) [Example 28, (S)-quinuclidin-3-yl (6-(4-(trifluoromethoxy)phenyl)-2,3-dihydro-1H-inden-1-yl)carbamate] | 52
CC1(C)Cc2cc(-c3ccc4nccnc4c3)ccc2C1NC(=O)O[C@@H]1CN2CCC1CC2 (stereo partly drawn) [Example 191, (S)-quinuclidin-3-yl (2,2-dimethyl-5-(quinoxalin-6-yl)-2,3-dihydro-1H-inden-1-yl)carbamate] | 123
CC1(C)Cc2cc(-c3cccc(C(F)(F)F)c3Cl)ccc2C1NC(=O)O[C@@H]1CN2CCC1CC2 (stereo partly drawn) [Example 182, (S)-quinuclidin-3-yl (5-(2-chloro-3-(trifluoromethyl)phenyl)-2,2-dimethyl-2,3-dihydro-1H-inden-1-yl)carbamate] | 20.9
O=C(NC1CCc2ccc(-c3cccc(Cl)c3)cc21)O[C@@H]1CN2CCC1CC2 (stereo partly drawn) [Example 30, (S)-quinuclidin-3-yl (6-(3-chlorophenyl)-2,3-dihydro-1H-inden-1-yl)carbamate] | 107
CC1(C)CC(NC(=O)O[C@@H]2CN3CCC2CC3)c2ccc(-c3cccc(OC(F)(F)F)c3)cc21 (stereo partly drawn) [Example 402, (S)-quinuclidin-3-yl (3,3-dimethyl-5-(3-(trifluoromethoxy)phenyl)-2,3-dihydro-1H-inden-1-yl)carbamate] | 19.5
CC1(C)Cc2ccc(-c3ccc(Cl)c(Cl)c3)cc2C1NC(=O)O[C@@H]1CN2CCC1CC2 (stereo partly drawn) [Example 70, (S)-quinuclidin-3-yl (6-(3,4-dichlorophenyl)-2,2-dimethyl-2,3-dihydro-1H-inden-1-yl)carbamate] | 70.9
CCCOc1cc(F)cc(-c2ccc3c(c2)CC(C)(C)C3NC(=O)O[C@@H]2CN3CCC2CC3)c1 (stereo partly drawn) [Example 257, (S)-quinuclidin-3-yl (5-(3-fluoro-5-propoxyphenyl)-2,2-dimethyl-2,3-dihydro-1H-inden-1-yl)carbamate] | 27.4
COc1ccc(F)cc1-c1ccc2c(c1)CC(C)(C)C2NC(=O)O[C@@H]1CN2CCC1CC2 (stereo partly drawn) [Example 234, (S)-quinuclidin-3-yl (5-(5-fluoro-2-methoxyphenyl)-2,2-dimethyl-2,3-dihydro-1H-inden-1-yl)carbamate] | 13.6
